Common to all, as to experiment: relative viability (nuclei count vs DMSO), 5 days (fraction); higher = more cells survive
Compound in the assay “Vandetanib + OSI-027”: COc1cc2/c(=N/c3ccc(Br)cc3F)nc[nH]c2cc1OCC1CCN(C)CC1 [Vandetanib] + COc1cccc2cc(-c3nc([C@H]4CC[C@H](C(=O)O)CC4)n4ncnc(N)c34)[nH]c12 [OSI-027] (partner 0.5 µM)
In outline:
(§1)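 Nuclei were stained with Hoechst during a one-step fixation (final 0.05% Triton X-100, 1% formaldehyde, 1 ug/ml Hoechst) carried out 5 days after dosing, then counted on 4× images. The cells, lung cancer lines in 1536-well plates, had been dosed by pin tool the day after seeding with one drug alone or a fixed anchor-drug dose plus five library-drug doses (not always all listed) in √10 steps. Relative viability is the nuclei count in treated wells divided by that in vehicle wells, and each value is the median of duplicate plates.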

Compound in assay [1]: C1=CC=C2C(=C1)N=C(S2)C(C#N)C3=NC(=NC=C3)NCCC4=CN=CC=C4 + Nc1ncn([C@H]2C[C@H](O)[C@@H](CO)O2)c(=O)n1 [Decitabine] (partner 2 µM)
The procedure, abridged: as §1

Compound in assay [2]: C1=CC=C2C(=C1)N=C(S2)C(C#N)C3=NC(=NC=C3)NCCC4=CN=CC=C4 + CC(=O)c1c(C)c2cnc(Nc3ccc(N4CCNCC4)cn3)nc2n(C2CCCC2)c1=O [Palbociclib] (partner 0.5 µM)
The procedure, abridged:
as §1

Compound in assay [3]: C1=CC=C2C(=C1)N=C(S2)C(C#N)C3=NC(=NC=C3)NCCC4=CN=CC=C4 + C[C@@H](Oc1cc(-c2cnn(C3CCNCC3)c2)cnc1N)c1c(Cl)ccc(F)c1Cl [Crizotinib] (partner 1 µM)
In outline:
as §1

On to UMC-11, for which the relative viability is 0.472 in the assay with Vandetanib + OSI-027 (first compound 0.02 µM); 0.416 with Vandetanib + OSI-027 (first compound 0.06325 µM); 0.45 with Vandetanib + OSI-027 (first compound 0.2 µM); 0.443 with Vandetanib + OSI-027 (first compound 0.6325 µM); 0.467 in the assay with Vandetanib + OSI-027 (first compound 2 µM); 0.546 in assay [1] (first compound 0.005 µM). Besides, the relative viability in assay [1] (first compound 0.01581 µM) turned out to be 0.65; in assay [1] (first compound 0.05 µM), 0.456; in assay [1] (first compound 0.1581 µM), 0.589; in assay [1] (first compound 0.5 µM), 0.59; in assay [2] (first compound 0.005 µM), 0.377; in assay [2] (first compound 0.01581 µM), 0.32. Besides, the relative viability was determined as 0.294 in assay [2] (first compound 0.05 µM); 0.346 in assay [2] (first compound 0.1581 µM); 0.31 in assay [2] (first compound 0.5 µM); 0.487 in assay [3] (first compound 0.005 µM); 0.561 in assay [3] (first compound 0.01581 µM); 0.602 in assay [3] (first compound 0.05 µM). Besides, the relative viability in assay [3] (first compound 0.1581 µM) was 0.654; in assay [3] (first compound 0.5 µM) it was 0.5.

The values are drawn from the supplement of paper PMC10307832.
